54 compounds from the Kinase Knowledgebase extract (Sharma et al. 2016) can be followed below.

pIC50: −log10 of the molar value.

The target in the first experiment is MAPK14 (human) (UniProt Q16539). In words: Inhibition of MAPK14 Kinase Activity.
MAPK14 (human), sequence (Q16539 whole entry, looked up): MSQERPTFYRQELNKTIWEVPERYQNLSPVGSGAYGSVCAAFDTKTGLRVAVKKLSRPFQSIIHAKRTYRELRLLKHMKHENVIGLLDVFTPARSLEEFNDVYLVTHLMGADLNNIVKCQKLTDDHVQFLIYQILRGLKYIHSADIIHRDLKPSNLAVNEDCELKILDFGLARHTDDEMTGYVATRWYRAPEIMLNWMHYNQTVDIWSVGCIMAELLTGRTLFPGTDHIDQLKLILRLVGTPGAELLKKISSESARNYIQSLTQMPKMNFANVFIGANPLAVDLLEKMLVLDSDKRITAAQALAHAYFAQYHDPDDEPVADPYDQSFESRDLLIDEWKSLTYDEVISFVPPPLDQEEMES
Conditions: not given
As usually defined, the pIC50 is −log10 of the IC50, conventionally taken in molar units. Low values mean a high IC50, high ones a low IC50. In the case of `CN(C)CCN1CCN(C(=O)c2cc(C(C)(C)C)sc2NC(=O)Nc2cccnc2Cl)C(C)(C)C1=O`, the pIC50 was greater than 5.30.

For `CCC1(C)C(=O)N(CC(=O)NCCN(C)C)CCN1C(=O)c1sc(C(C)(C)C)cc1NC(=O)Nc1cccc(Cl)c1Cl` (centres undefined), the pIC50 was greater than 5.30. `CN(C)CCN1CCN(C(=O)c2cc(C(C)(C)C)sc2NC(=O)Nc2ccccc2C(F)(F)F)CCC1=O` showed a pIC50 greater than 5.30.

In the case of `CC(C)(C)c1nc(C(=O)N2CCC(=O)N(CCN)CC2)c(NC(=O)Nc2cccc(Cl)c2Cl)s1`, the pIC50 was greater than 5.30. `Cn1c(C(C)(C)C)cc(NC(=O)Nc2cccc(Cl)c2Cl)c1C(=O)N1CCNC(=O)C1(C)C` showed a pIC50 greater than 5.30. The same measure, in the same setting: as for `CC(C)(C)c1cc(C(=O)N2CCNC(=O)C2(C)C)c(NC(=O)Nc2ccccc2C(C)(C)C)s1`, the figure is greater than 5.30; as for `CC(C)(C)c1cc(C(=O)N2CCNC(=O)CC2)c(NC(=O)Nc2ccc(F)c(F)c2Cl)s1`, greater than 5.30.

Turning to `CN(C)CCN1CCN(C(=O)c2cc(C(C)(C)C)sc2NC(=O)Nc2cccc(Cl)c2Cl)CC(C)(C)C1=O`, the negative logarithm of the IC50 (pIC50) was greater than 5.30. The compound `CC(C)(C)c1cc(C(=O)N2CCNC(=O)C2)c(NC(=O)Nc2ccc(F)c(Cl)c2Cl)s1` gave a pIC50 greater than 5.30.

As for `CC(C)(C)c1cc(C(=O)N2CCNC(=O)C2(C)C)c(NC(=O)Nc2cccnc2Cl)s1`, the pIC50 was greater than 5.30. The same measure, in the same setting: as for `CC(C)(C)c1cc(C(=O)N2CCS(=O)(=O)CC2)c(NC(=O)Nc2ccc(F)c(Cl)c2Cl)s1`, the figure is greater than 5.30; as for `CC(C)(C)OC(=O)N1CCN(C(=O)c2cc(C(C)(C)C)sc2NC(=O)Nc2cccc(Cl)c2Cl)CC1(C)C`, greater than 5.30. The compound `CCC1(C)C(=O)NCCN1C(=O)c1cc(C(C)(C)C)sc1NC(=O)Nc1ccc(F)cc1Cl` (centres undefined) had a pIC50 greater than 5.30. The compound `CN1CCN(C(=O)c2cc(C(C)(C)C)sc2NC(=O)Nc2cccc(Cl)c2Cl)C(C)(CC(N)=O)C1=O` (centres undefined) gave a pIC50 greater than 5.30.

In turn, `CC(C)(C)c1nc(C(=O)N2CCNC(=O)C2(C)C)c(NC(=O)Nc2ccc(F)c(Cl)c2Cl)s1` gave a pIC50 greater than 5.30. As for `CC(C)(C)c1cc(C(=O)N2CCNC(=O)C2(C)C)c(NC(=O)Nc2ccc(OC(F)F)c(Cl)c2Cl)s1`, the pIC50 is greater than 5.30. Compound `COc1c(Cl)cccc1NC(=O)Nc1sc(C(C)(C)C)cc1C(=O)N1CCNC(=O)C1(C)CCO` (centres undefined) gave a pIC50 greater than 5.30. As for `COC(=O)N1CCN(C(=O)c2cc(C(C)(C)C)sc2NC(=O)Nc2cccc(Cl)c2Cl)CC1`, the pIC50 was greater than 5.30. Regarding `CC(C)(C)c1cc(C(=O)N2CCN(CC(=O)O)C(=O)C2(C)C)c(NC(=O)Nc2cccc(Cl)c2Cl)s1`, the pIC50 was greater than 5.30.

The compound `CC(C)(C)c1cc(C(=O)N2CCN(CCN3CCOCC3)C(=O)C2(C)C)c(NC(=O)Nc2cccc(Cl)c2Cl)s1` gave a negative logarithm of the IC50 (pIC50) greater than 5.30. Regarding `CON(C)C(=O)CN1CCN(C(=O)c2cc(C(C)(C)C)sc2NC(=O)Nc2ccc(F)cc2Cl)CCC1=O`, the pIC50 is greater than 5.30. The compound `CON(C)C(=O)CN1CCN(C(=O)c2cc(C(C)(C)C)sc2NC(=O)Nc2cccc(Cl)c2Cl)C(C)(C)C1=O` showed a pIC50 greater than 5.30. The compound `COc1cccc(NC(=O)Nc2sc(C(C)(C)C)cc2C(=O)N2CCN(CCN(C)C)C(=O)C2(C)C)c1Cl` gave a pIC50 greater than 5.30. For the compound `CC1(C)C(=O)NCCN1C(=O)c1oc(C(F)(F)F)cc1NC(=O)Nc1ccc(F)c(Cl)c1Cl`, the pIC50 is greater than 5.30. Regarding `CC(C)(C)c1cc(C(=O)N2CCNS(=O)(=O)CC2)c(NC(=O)Nc2ccc(F)c(Cl)c2Cl)s1`, the negative-log IC50 (pIC50) is greater than 5.30. Compound `CC(C)(C)c1cc(C(=O)N2CCN(CC(=O)NCC3CC3)C(=O)C2(C)C)c(NC(=O)Nc2cccc(Cl)c2Cl)s1` showed a pIC50 greater than 5.30. The same measure, in the same setting: under `CC(C)(C)c1cc(C(=O)N2CCNC(=O)C2(C)C)c(NC(=O)Nc2ccc(F)cc2Cl)s1` stands greater than 5.30. In turn, `CONC(=O)CN1CCN(C(=O)c2cc(C(C)(C)C)sc2NC(=O)Nc2cccc(Cl)c2Cl)C(C)(C)C1=O` gave a pIC50 greater than 5.30. The same measure, in the same setting: as for `CC(C)(C)c1cc(C(=O)N2CCNC(=O)CC2)c(NC(=O)Nc2ccc(F)cc2Cl)s1`, the figure is greater than 5.30.

Turning to `COC(=O)c1ccc(NC(=O)Nc2cc(C(C)(C)C)sc2C(=O)N2CCNC(=O)C2(C)C)c(Cl)c1`, the negative-log IC50 (pIC50) is greater than 5.30. In the case of `COC(=O)CN1CCN(C(=O)c2nc(C(C)(C)C)sc2NC(=O)Nc2cccc(Cl)c2Cl)C(C)(C)C1=O`, the pIC50 is greater than 5.30. Still for that read-out and setting: under `CC(C)(C)c1cc(C(=O)N2CCN(S(C)(=O)=O)CC2)c(NC(=O)Nc2cccc(Cl)c2Cl)s1` stands greater than 5.30. `CC(C)(C)c1cc(NC(=O)Nc2cccc(Cl)c2Cl)c(C(=O)N2CCNS(=O)(=O)CC2)o1`: the pIC50 is greater than 5.30. With `CCC1(C)C(=O)N(CC(=O)NCCN2CCOCC2)CCN1C(=O)c1cc(C(C)(C)C)sc1NC(=O)Nc1cccc(Cl)c1Cl` (centres undefined), the pIC50 was greater than 5.30. Same read-out and setting: under `CC(C)(C)c1cc(NC(=O)Nc2cccc(Cl)c2Cl)c(C(=O)N2CCNC(=O)C2(C)C)s1` stands greater than 5.30. In turn, `CCC1(C)C(=O)N(CC(=O)N2CCN(C)CC2)CCN1C(=O)c1cc(C(C)(C)C)sc1NC(=O)Nc1cccc(Cl)c1Cl` (centres undefined) had a pIC50 greater than 5.30.

The compound `CON(C)C(=O)CN1CCN(C(=O)c2[nH]c(C(C)(C)C)cc2NC(=O)Nc2cccc(Cl)c2Cl)C(C)(C)C1=O` showed a pIC50 greater than 5.30.

The compound `COC(=O)CN1CCN(C(=O)c2[nH]c(C(C)(C)C)cc2NC(=O)Nc2cccc(Cl)c2Cl)C(C)(C)C1=O` had a pIC50 greater than 5.30. As for `CC1(C)OCC(CN2CCN(C(=O)c3cc(C(C)(C)C)sc3NC(=O)Nc3cccc(Cl)c3Cl)C(C)(C)C2=O)O1` (centres undefined), the pIC50 is greater than 5.30. The same measure, in the same setting: under `CC(=O)N1CCCN(C(=O)c2cc(C(C)(C)C)sc2NC(=O)Nc2cccc(Cl)c2Cl)CC1` stands greater than 5.30; under `CCC1(C)C(=O)N(CCN(C)C)CCN1C(=O)c1cc(C(C)(C)C)sc1NC(=O)Nc1ccc(F)cc1` (centres undefined), greater than 5.30. Still for that read-out and setting: as for `COc1ccccc1NC(=O)Nc1sc(C(C)(C)C)cc1C(=O)N1CCC(=O)N(CCN(C)C)CC1`, the figure is greater than 5.30; as for `CC(C)(C)c1cc(C(=O)N2CCNC(=O)C2)c(NC(=O)Nc2ccc3c(c2)OCO3)s1`, greater than 5.30; as for `CC(C)(C)c1cc(C(=O)N2CCNC(=O)C2(C)C)c(NC(=O)Nc2ccncc2Cl)s1`, greater than 5.30. `CC(C)(C)c1cc(C(=O)N2CCNC(=O)C23CCC3)c(NC(=O)Nc2ccc(F)c(Cl)c2Cl)s1`: the pIC50 was greater than 5.30.

Turning to `COC(=O)CN1CCN(C(=O)c2cc(C(C)(C)C)sc2NC(=O)Nc2ccc(F)c(Cl)c2Cl)C(C)(C)C1=O`, the pIC50 was greater than 5.30. With `COc1ccc(CC(=O)N2CCN(C(=O)c3cc(C(C)(C)C)sc3NC(=O)Nc3cccc(Cl)c3Cl)CC2)cc1`, the pIC50 was greater than 5.30. Still for that read-out and setting: as for `O=C(Nc1cc(C(=O)N2CCS(=O)(=O)CC2)cc(C(F)(F)F)c1)Nc1cccc(Cl)c1Cl`, the figure is greater than 5.30.

The experiment is the same for the next values; noted with them: concentration not given here.
The term inhibition denotes the change of the read-out against control, counted positive when it falls. In the case of `CC(C)(C)c1cc(C(=O)N2CCNC(=O)CC2)c(NC(=O)Nc2ccnc3ccccc23)s1`, the inhibition is 51 to 75%.

`CC(C)(C)c1nc(NC(=O)Nc2cccc3ccccc23)c(C(=O)N2CCNC(=O)CC2)s1`: the inhibition was in the range of 76 to 100%. Compound `CC(C)(C)c1cc(C(=O)N2CCNC(=O)CC2)c(NC(=O)NC2CCNCC2)s1` showed an inhibition of 0 to 25%. The same measure, in the same setting: as for `CC(C)(C)c1cc(C(=O)N2CCNC(=O)C2)c(NC(=O)Nc2cccc3ccccc23)s1`, the figure is 76 to 100%; as for `Cc1cccc(NC(=O)Nc2sc(C(C)(C)C)cc2C(=O)N2CCNC(=O)CC2)c1`, 76 to 100%; as for `CC(C)(C)c1cc(C(=O)N2CCNC(=O)CC2)c(NC(=O)Nc2cnc(O)c3ccccc23)s1`, 26 to 50%.
